Experimental data: patent US20100240040A1, “METHOD FOR SCREENING FOR SELECTIVE MODULATOR OF THE NF-KB PATHWAY ACTIVATION” (INSTITUT PASTEUR, priority 2007, published 2010)
Where a SMILES comes first, the peptide text is derived from it.

How the values were obtained:
Flag-NEMO = target: T1, Flag-NEMO (Mus musculus, UniProt O88522, A144V/E216G/P360T/S248N); assay: Pull-down of Flag-NEMO from JM4.5.2/Flag-NEMO cells treated with Bodipy-conjugated peptides, bead fluorescence; type: cell-based, murine; details: 20 μM peptide, 4 h
T1 construct: expressed in transfected cells
T1 sequence (O88522 with tags, fused parts or gaps A144V/E216G/S248N/P360T): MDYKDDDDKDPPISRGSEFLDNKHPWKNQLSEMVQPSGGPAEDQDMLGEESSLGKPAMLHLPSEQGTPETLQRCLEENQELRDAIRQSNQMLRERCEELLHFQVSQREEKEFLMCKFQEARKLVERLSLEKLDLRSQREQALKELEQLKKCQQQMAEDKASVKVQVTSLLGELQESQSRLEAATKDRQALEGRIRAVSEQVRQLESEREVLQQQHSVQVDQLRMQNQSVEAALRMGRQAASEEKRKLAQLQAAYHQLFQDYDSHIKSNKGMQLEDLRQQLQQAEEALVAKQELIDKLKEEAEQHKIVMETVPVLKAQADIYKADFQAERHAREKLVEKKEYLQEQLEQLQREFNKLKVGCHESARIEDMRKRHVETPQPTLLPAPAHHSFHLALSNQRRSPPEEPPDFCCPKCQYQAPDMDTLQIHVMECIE
Method: 5·10^6 JM4.5.2/Flag-NEMO cells were seeded in 6-well plates (3 ml/well) and incubated with 20 μM of Bodipy-conjugated peptides (BA-NLM or BA-DR NLM) for 4 h at 37° C. Cells were centrifuged at 400×g for 5 min, resuspended in 200 μl of an hypotonic buffer (10 mM TrisHCl pH 7.9, 1.5 mM MgCl2, 10 mM KCl), left on ice for 20 min and lysed by several passage through a 26 G needle. Lysates were clarified at 15 000×g for 20 min and 80 μg of total proteins were incubated with 40 μl of agarose anti-Flag M2 beads for 1 h at 4° C. The Flag-NEMO protein were pulled down with the agarose anti-Flag M2 beads by centrifugation for 1 min. Beads were resuspended in 100 μl of hypotonic buffer and the fluorescence of NEMO linked peptide was read on microplate reader from SAFAS. NEMO coated beads were analyzed by Western blotting using anti-Flag M2 monoclonal antibodies to normalize the sample using the UN-SCAN-IT software. […]

[1] = Circular dichroism and gel filtration, self-association of peptides; type: physicochemical; details: peptide concentration up to 100 μM; data not shown
Method: Far-UV circular dichroism (CD) measurements were performed with an Aviv 215 spectropolarimeter with samples diluted in 10 mM NaPO4 at pH 7.
Then, unlike the LZ peptide, DR NLM peptide as well as NLM peptide are unable to self-associate. Self association of LZ peptide is described by Agou et al., 2004b.

NF-κB pathway = details: reported in WO 2005/027959; cited from earlier work

SMILES: CC[C@H](C)[C@H](NC(=O)[C@H](CC(=O)O)NC(=O)[C@H](C)NC(=O)[C@H](CCC(N)=O)NC(=O)[C@H](C)NC(=O)[C@H](CCCCN)NC(=O)[C@H](CC(C)C)NC(C)=O)C(=O)N[C@@H](Cc1ccc(O)cc1)C(=O)N[C@@H](CCCCN)C(=O)N[C@@H](C)C(=O)N[C@@H](CCCNC(=N)N)C(=O)N[C@@H](Cc1ccccc1)C(=O)N[C@@H](CCC(N)=O)C(=O)N[C@@H](C)C(=O)N[C@@H](CCC(=O)O)C(=O)N[C@@H](CCCNC(=N)N)C(=O)N[C@@H](Cc1c[nH]cn1)C(=O)N[C@@H](C)C(=O)N[C@@H](CCCNC(=N)N)C(=O)N[C@@H](CCC(=O)O)C(=O)N[C@@H](CCCCN)C(N)=O [DR NLM] (Ac-LKAQADIYKARFQAERHAREK-NH2; N-terminus and C-terminus assumed)
- peptide bound to NEMO in cells (bead fluorescence) (Flag-NEMO): binds specifically to NEMO
- oligomeric state / self-association [1]: behave as monomer
- inhibition of NF-κB activation (NF-κB pathway): inhibit NF-κB activation
